# What was measured:
# human islets [1] = assay: Insulin secretion assay (static incubation, C-peptide ELISA); assay type: cell-based; set-up: glucose responsiveness stimulation index: dose or concentration left out as unconfirmed; settings: for difference in glucose responsiveness stimulation index between PFOB and PFPE: PFOB vs PFPE, p>0.05; for glucose responsiveness stimulation index: increase of insulin secretion
# Description: A static incubation assay was used to assess the insulin secretion response of labeled human islets. One hundred islets were placed in a culture insert (membrane pore diameter 12 μm; Millicell PCF) in six-well plates. The insulin secretion was measured after 1.5 hrs in a solution of a specific glucose level. […] Aliquots of the medium were stored at −80° C. The C-peptide content of the samples was determined with an enzyme-linked, immunosorbent assay (ultrasensitive human c-peptide ELISA, Alpco Diagnostics); results (in ng/ml) were expressed as the means of three independent experiments. The C-peptide secretion was also assessed at 7 days and at 14 days following islet encapsulation, using 8 mM glucose and 90 min incubation.
# human islets [2] = assay: Microfluorometric viability assay (Newport Green / propidium iodide) of labeled islets; assay type: cell-based
# Description: Fresh human cadaveric islets were provided by the Joslin Diabetes Research Center (Boston, Mass.) under an approved protocol of the National Islet Cell Resource Program. Islets were cultured in RPMI 1640 medium (Gibco), supplemented with 10% fetal calf serum and 1% penicillin/streptomycin/L-glutamine (all reagents from Sigma Co) in a humidified CO2 incubator at 37° C. and a 5% CO2 atmosphere. Islets were cultured in tissue culture plates and culture media was replaced every 3 days. For all Feridex labeled islets, islets were initially labeled with procedure described below and then were cultured in contrast free medium. In the case of PFC labeled islets, the respective PFC was supplemented to each change of culture medium throughout the entire culture period.
# Viability of labeled human islets was determined using a microfluorometric assay. Cells were incubated for 30 minutes with […] Newport Green (NG, Sigma, St. Louis, Mo.), which stains viable cell cytoplasm green. Following NG staining, islets were incubated for 10 minutes with 5 mM propidium iodide (PI, Sigma, St. Louis, Mo.), which emits red fluorescence when bound to nucleic acids. NG was excited by using a 500 nm laser line and emitted fluorescence was detected using a 535 nm long-pass filter. PI was excited by using a 514 nm laser line and emitted fluorescence was detected using a 550 nm long-pass filter. NG stained cells (green) were counted as viable, while PI stained cells (red) were counted as dead. In cases of dual staining, the cells were considered dead.
# [3] = 19F NMR of PFCs (aqueous solubility); assay type: physicochemical; settings: 19F NMR experiments
# Text: In the ^19F NMR spectrum of PFOB, eight resonance peaks are observable, one for each carbon position.
# dendritic cells = settings: Ahrens, Flores et al. 2005; cited from earlier work
Structure (SMILES),difference in glucose responsiveness stimulation index between PFOB and PFPE (human islets [1]),glucose responsiveness stimulation index (human islets [1]),glucose responsiveness of labeled vs unlabeled islets (human islets [1]; insulin secretion assays),islet viability compared to both Feridex labeled and unlabeled islets (human islets [2]),"percentage survival of labeled islets compared to unlabeled control islets (human islets [2]; all days / all time points (days 1, 7, 14))",aqueous solubility [3],"percentage survival of labeled islets compared to unlabeled control islets (human islets [2]; days 7 and 14, p<0.05)","effect on dendritic cell proliferation, function, or maturation (dendritic cells)"
"FC(F)(F)C(F)(F)C(F)(F)C(F)(F)C(F)(F)C(F)(F)C(F)(F)C(F)(F)Br [PFOB, perfluorooctylbromide]",no significant statistical difference,2.19,no significant difference,significant increase in viability,statistically significant increase,below the limit of detection,,
"FC1(F)OC(F)(F)C(F)(F)OC(F)(F)C(F)(F)OC(F)(F)C(F)(F)OC(F)(F)C(F)(F)OC1(F)F [PFPE, perfluoro-15-crown-5 ether]",no significant statistical difference,2.07,,,,,significant statistical differences,no effect

# — patent publication US20110020239A1, “METHODS FOR IN VIVO IMAGING OF CELLS” (The Johns Hopkins University, priority 2007, published 2011)
